Laboratory results: paper PMC7897990, “TriTOX: A novel Trichomonas vaginalis assay platform for high-throughput screening of compound libraries” (International Journal for Parasitology: Drugs and Drug …, 2021)
Where two headings read alike, the source gives them in different places.

Experiments:
[1] = test system: nontumorigenic neonatal foreskin fibroblast (NFF) cell line
[2] = test system: Trichomonas vaginalis G3 trophozoites
[3] = NFF_NS1 screen 5 µg/mL, single concentration
[4] = HTS single concentration, parasite screen 1 µg/mL, replicate 1
[5] = HTS single concentration, parasite screen 1 µg/mL, replicate 2
[6] = replicate 1, parasite screen at 1 µg/mL
[7] = replicate 2, parasite screen at 1 µg/mL
[8] = NFF fibroblast screen at 5 µg/mL, A = active, I = inactive
[9] = HTS, parasite screen at 1 µg/mL, replicate 1
[10] = HTS, parasite screen at 1 µg/mL, replicate 2
[11] = NFF_NS1 screen at 5 µg/mL, NFF cells
[12] = parasite screen at 1 µg/mL, replicate 1
[13] = parasite screen at 1 µg/mL, replicate 2
[14] = HTS, parasite screen at 1 µg/mL, replicate 1, raw absorbance
[15] = HTS, parasite screen at 1 µg/mL, replicate 2, raw absorbance

## CO[C@H]1C[C@H](O[C@H]2[C@H](C)O[C@@H](O[C@@H]3/C(C)=C/C[C@@H]4C[C@@H](C[C@]5(C=C[C@H](C)[C@@H](C(C)C)O5)O4)OC(=O)[C@@H]4C=C(C)[C@@H](O)[C@H]5OC/C(=C\C=C\[C@@H]3C)[C@]54O)C[C@@H]2OC)O[C@@H](C)[C@@H]1O [BIA-A1011]
[1]; [3]
  NFF_Activity: I (otherwise these were reported as inactive (I))
[2]; [4]
  T.vaginalis_%inb_Rep1: 14.65%
[2]; [5]
  T.vaginalis_%inb_Rep2: 18.51%

## Oc1cccc2nc3ccccc3nc12 [BIA-H1520]
[1]; NFF cells, screen at 5 µg/mL
  NFF_Activity: I (otherwise these were reported as inactive (I))
[2]; [6]
  T.vaginalis_%inb_Rep1: 9.69%
[2]; [7]
  T.vaginalis_%inb_Rep2: 12.89%

## CCC(=O)[C@@H](C)[C@@H](O)[C@H](C)C[C@@H](C)[C@H]1OC(=O)C[C@@]2(O)CC=C(C)[C@H](O2)/C(C)=C/CCC[C@@H](O[C@H]2C[C@@H](OC(N)=O)[C@H](O)[C@@H](C)O2)/C=C/[C@H](C)C[C@H]1C [Venturicidin A]
[1]; [8]
  NFF_Activity: I (otherwise these were reported as inactive (I))
[2]; [9]
  T.vaginalis_%inb_Rep1: 9.49%
[2]; [10]
  T.vaginalis_%inb_Rep2: 12.92%

## CC[C@H](C)[C@H]1O[C@]2(C=C[C@@H]1C)C[C@@H]1C[C@@H](C/C=C(\C)[C@@H](O)[C@@H](C)/C=C/C=C3\CO[C@@H]4[C@H](O)C(C)=C[C@@H](C(=O)O1)[C@]34O)O2 [BIA-A1587]
[1]; [3]
  NFF_Activity: I (otherwise these were reported as inactive (I))
[2]; [4]
  T.vaginalis_%inb_Rep1: 13.62%
[2]; [5]
  T.vaginalis_%inb_Rep2: 16.27%

## CCCCCc1c2c(cc(O)c1C(=O)O)OC(=O)c1c(cc(OC)cc1C(=O)CCCC)O2 [BIA-L1671]
[1]; NFF cells, screen at 5 µg/mL
  NFF_Activity: I (otherwise these were reported as inactive (I))
[2]; [6]
  T.vaginalis_%inb_Rep1: 10.45%
[2]; [7]
  T.vaginalis_%inb_Rep2: 14.37%

## COc1cc2c(c3oc4cccc(O)c4c(=O)c13)[C@@H]1C=CO[C@@H]1O2 [BIA-S1213]
[1]; [11]
  NFF_Activity: I (otherwise these were reported as inactive (I))
[2]; [12]
  T.vaginalis_%inb_Rep1: 10.12%
[2]; [13]
  T.vaginalis_%inb_Rep2: 14.32%

## COC1=C(N)C(=O)c2nc(-c3nc(C(=O)O)c(C)c(-c4ccc(OC)c(OC)c4O)c3N)ccc2C1=O [BIA-S1107]
[1]; [11]
  NFF_Activity: A (active (A) compounds having >25% inhibitory activity)
[2]; [12]
  T.vaginalis_%inb_Rep1: 76.72%
[2]; [13]
  T.vaginalis_%inb_Rep2: 90.80%

## Cc1cc(O)cc2oc(=O)c3c(O)cc(O)cc3c12 [BIA-A1926]
[1]; [3]
  NFF_Activity: I (otherwise these were reported as inactive (I))
[2]; [4]
  T.vaginalis_%inb_Rep1: 6.66%
[2]; [5]
  T.vaginalis_%inb_Rep2: 9.26%

## COC1=C(OC)C(=O)C(C)=C(C)C1=O [BIA-A1654]
[1]; [3]
  NFF_Activity: A (active (A) compounds having >25% inhibitory activity)
[2]; [4]
  T.vaginalis_%inb_Rep1: 13.09%
[2]; [5]
  T.vaginalis_%inb_Rep2: 16.34%

## O=C1C=CC(=O)c2c(O)cccc21 [BIA-J1739]
[1]; NFF cells, screen at 5 µg/mL
  NFF_Activity: A (active (A) compounds having >25% inhibitory activity)
[2]; [6]
  T.vaginalis_%inb_Rep1: 12.73%
[2]; [7]
  T.vaginalis_%inb_Rep2: 10.78%

## O=c1cccc2n1C[C@H]1C[C@@H]2CN2CCCC[C@H]12 [BIA-A1939]
[1]; [3]
  NFF_Activity: I (otherwise these were reported as inactive (I))
[2]; [4]
  T.vaginalis_%inb_Rep1: 7.92%
[2]; [5]
  T.vaginalis_%inb_Rep2: 14.14%

## CN(C)C1C(=O)C(C(N)=O)=C(O)C2(O)C(=O)CC(C3(C)OC(=O)c4c(O)ccc(Cl)c43)CC12 (centres unmarked) [BIA-I1656]
[1]; NFF cells, screen at 5 µg/mL
  NFF_Activity: I (otherwise these were reported as inactive (I))
[2]; [6]
  T.vaginalis_%inb_Rep1: 15.87%
[2]; [7]
  T.vaginalis_%inb_Rep2: 12.89%

## CCC1OC(=O)C(C)C(=O)C(C)C(OC2OC(C)CC(N(C)C)C2O)C(C)(OC)CC(C)C(=O)C(C)C2N(CCCCn3cnc(-c4cccnc4)c3)C(=O)OC12C (centres unmarked) [BIA-T1316]
[1]; [11]
  NFF_Activity: I (otherwise these were reported as inactive (I))
[2]; [12]
  T.vaginalis_%inb_Rep1: 0.94%
[2]; [13]
  T.vaginalis_%inb_Rep2: 5.97%

## CC1CCCC(O)CCCCCc2cc(O)cc(O)c2C(=O)O1 (stereo not drawn) [Zearalanol, alpha-]
[1]; [8]
  NFF_Activity: I (otherwise these were reported as inactive (I))
[2]; [9]
  T.vaginalis_%inb_Rep1: 6.97%
[2]; [10]
  T.vaginalis_%inb_Rep2: 13.04%

## CC[C@H]1/C=C/C=C/C[C@@H](C)[C@H](O)[C@@](C)(O)C(=O)[C@@H](C)[C@H](O)[C@@H](C)C(=O)[C@@H](C)[C@H](O)[C@@H](C)/C=C/C(=O)O[C@H]2C[C@@]3(CC[C@H](C)[C@H](C[C@@H](C)O)O3)O[C@@H](CC1)[C@H]2C [Oligomycin D]
[1]
  NFF_Activity: I (key: active (A) compounds having >25% inhibitory activity; otherwise these were reported as inactive (I))
[2]; HTS replicate 1, parasite screen 1 µg/mL
  T.vaginalis_%inb_Rep1: 14.35%
[2]; HTS replicate 2, parasite screen 1 µg/mL
  T.vaginalis_%inb_Rep2: 12.89%

## CCC(=O)CCCCCC1NC(=O)C2CCCCN2C(=O)C(C(C)CC)NC(=O)C(Cc2cn(OC)c3ccccc23)NC1=O (centres unmarked) [BIA-A1006]
[1]; [3]
  NFF_Activity: I (otherwise these were reported as inactive (I))
[2]; [4]
  T.vaginalis_%inb_Rep1: 13.25%
[2]; [5]
  T.vaginalis_%inb_Rep2: 17.28%

## CCCC[C@@H](C)[C@@H](OC(=O)C[C@@H](CC(=O)O)C(=O)O)[C@H](C[C@@H](C)C[C@H](O)CCCC[C@@H](O)C[C@H](O)[C@H](C)N)OC(=O)C[C@@H](CC(=O)O)C(=O)O [Fumonisin B1]
[1]; NFF_NS1 screen at 5 µg/mL
  NFF_Activity: I (otherwise these were reported as inactive (I))
[2]; [9]
  T.vaginalis_%inb_Rep1: 12.98%
[2]; [14]
  T.vaginalis_Absorbance_Rep1: 0.958
[2]; [10]
  T.vaginalis_%inb_Rep2: 14.05%
[2]; [15]
  T.vaginalis_Absorbance_Rep2: 0.854

## Cc1cc(O)c(O)c2oc(=O)c3c(O)cc(O)cc3c12 [BIA-H1558]
[1]; NFF cells, screen at 5 µg/mL
  NFF_Activity: I (otherwise these were reported as inactive (I))
[2]; [6]
  T.vaginalis_%inb_Rep1: 10.09%
[2]; [7]
  T.vaginalis_%inb_Rep2: 9.24%

## COc1c(O)c(C)c(C)c(O)c1OC [BIA-H1651]
[1]; NFF cells, screen at 5 µg/mL
  NFF_Activity: A (active (A) compounds having >25% inhibitory activity)
[2]; [6]
  T.vaginalis_%inb_Rep1: 13.69%
[2]; [7]
  T.vaginalis_%inb_Rep2: 12.19%

## CN1C(=O)c2ccccc2-n2c(nc3ccccc3c2=O)C1Cc1ccccc1 (centres unmarked) [BIA-B1647]
[1]; [3]
  NFF_Activity: I (otherwise these were reported as inactive (I))
[2]; [4]
  T.vaginalis_%inb_Rep1: 16.42%
[2]; [5]
  T.vaginalis_%inb_Rep2: 13.38%

## COC1=C(N)C(=O)c2nc(-c3nc(C(=O)O)c(C)c(-c4cccc(OC)c4O)c3N)ccc2C1=O [BIA-S1088]
[1]; [3]
  NFF_Activity: A (active (A) compounds having >25% inhibitory activity)
[2]; [4]
  T.vaginalis_%inb_Rep1: 77.76%
[2]; [5]
  T.vaginalis_%inb_Rep2: 92.91%

## CO[C@@H]1[C@@H](O)[C@@H](O)[C@@H](Oc2ccc3c(O)c(NC(=O)c4ccc(O)c(CC=C(C)C)c4)c(=O)oc3c2C)OC1(C)C [Descarbamylnovobiocin]
[1]; NFF_NS1 screen at 5 µg/mL
  NFF_Activity: I (otherwise these were reported as inactive (I))
[2]; [9]
  T.vaginalis_%inb_Rep1: 9.75%
[2]; [14]
  T.vaginalis_Absorbance_Rep1: 0.89
[2]; [10]
  T.vaginalis_%inb_Rep2: 9.69%
[2]; [15]
  T.vaginalis_Absorbance_Rep2: 0.754

## C[C@H]1CC[C@H]2[C@@H](C=C[C@@H]3[C@H]4[C@@H](C)O[C@]5(O)[C@@H](CO)N(C)C(=O)[C@]45C(=O)[C@@]32C)C1 [Fusarisetin A]
[1]; NFF_NS1 screen at 5 µg/mL
  NFF_Activity: I (otherwise these were reported as inactive (I))
[2]; [9]
  T.vaginalis_%inb_Rep1: 14.05%
[2]; [14]
  T.vaginalis_Absorbance_Rep1: 0.979
[2]; [10]
  T.vaginalis_%inb_Rep2: 15.01%
[2]; [15]
  T.vaginalis_Absorbance_Rep2: 0.869

## COC1=CC(C)=CC(C)C(O)C(C)CC(C)=CC=CC(OC)C(C(C)C(O)C(C)C(=O)C=CC(C)C(O)C(C)C)OC1=O (centres unmarked) [BIA-B1162]
[1]; [3]
  NFF_Activity: I (otherwise these were reported as inactive (I))
[2]; [4]
  T.vaginalis_%inb_Rep1: 15.67%
[2]; [5]
  T.vaginalis_%inb_Rep2: 18.37%

## Diacetoxyscirpenol
[1]
  NFF_Activity: I (key: active (A) compounds having >25% inhibitory activity; otherwise these were reported as inactive (I))
[2]
  T.vaginalis_%inb_Rep1: 8.29%
  T.vaginalis_%inb_Rep2: 9.08%
  T.vaginalis_Absorbance_Rep1: 0.923
  T.vaginalis_Absorbance_Rep2: 0.786
